Among the data in PubChem BioAssay (NCI) are TGI and GI50 values, retold here.

What all share (test): NCI anticancer screen, dose series, 48 h
Experiment [1] deals with SF-268 CNS.
In experiment [2] the test system is SK-MEL-5 melanoma.
Experiment [3] relates to OVCAR-8 ovarian.
Experiment [4] deals with RXF 393 renal.
The test system of experiment [5] is HOP-92 NSCLC.
The test system of experiment [6] is NCI-H460 lung.
Experiment [7] relates to CCRF-CEM leukemia.
Experiment [8] has as its system SR leukemia.
The subject of experiment [9] is NCI/ADR-RES ovarian.
Experiment [10] relates to PC-3 prostate.

The structures appear in SMILES notation.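 Growth conditions: 96-well plates. Treatment: test compound, 48 hours, 5 concentrations. Analysis: linear interpolation between bracketing concentrations; unreached endpoints set to highest concentration. At the GI50, growth is halved. Definition used: TGI = concentration required for complete inhibition of growth.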

With `Cc1nc(-c2cccnc2)sc1C(=O)/C=C/c1ccc(Cl)cc1Cl`, the TGI in experiment [1], in experiment [2], in experiment [3], in experiment [4], in [5] and in experiment [6] was over 100 µM throughout. The same compound registered a TGI in experiment [7] of over 100 µM.
Consider `NC(=O)NC(=O)C1CCC(=O)N1S(=O)(=O)c1ccc(Cl)cc1` (stereo not given), for which the TGI in experiment [1], in [2], in [3], in [8], in [4] and in [5] was over 100 µM in each case. Moreover, the TGI in [6] and in [7] was over 100 µM throughout.
Consider `CCOC(=O)NC/C=C/CO`, for which the TGI in [1], in experiment [2], in [3], in experiment [8], in experiment [4] and in [6] was over 100 µM throughout. This compound gave a TGI in experiment [7] of over 100 µM.
As to `CCCCCCCCCCCCCCCC(=O)NCC(OCC)OCC`, the TGI in experiment [1], in experiment [2], in [3], in experiment [4], in [5] and in [6] was over 100 µM in each case. In [7], this compound had a TGI of over 100 µM.
As to `CCOC(=O)C1C(=O)C(=O)N2CCc3c([nH]c4ccccc34)C12` (stereo not given), the TGI in experiment [1], in [2], in experiment [3], in experiment [8], in [4] and in experiment [5] was over 100 µM throughout. This compound yielded a TGI in experiment [7] of over 100 µM.
For the compound `Nc1nc(N)c(-c2ccccc2)c(C(=O)Nc2nccs2)n1`, the TGI in experiment [1], in [2], in experiment [3], in experiment [4], in experiment [5] and in [6] was over 100 µM in each case. The compound further returned a TGI in [7] of over 100 µM.
As for `CN(C)c1ccc(/C=C2\Cc3ccccc3C2=O)cc1Br`, the TGI in experiment [1] is over 100 µM; in experiment [2], 76.6 µM; in [3] it was over 100 µM; in experiment [6], over 100 µM; in [7], over 100 µM.
`O=[N+]([O-])c1cccc(C2=NOC3CCCC23)c1` (stereo not given): the TGI in experiment [1], in [2], in [3], in experiment [5], in [6] and in experiment [7] was over 100 µM throughout.
Regarding `O=[N+]([O-])C1(CO)COC(CCc2ccccc2)OC1` (stereo not given), the TGI in experiment [2], in [3], in experiment [8], in [4], in [5] and in experiment [6] was over 100 µM throughout. Besides, the TGI in experiment [7] is over 100 µM.
Regarding `CC(=O)OCC1OC(OC(C)=O)C(NC#N)C(OC(C)=O)C1OC(C)=O` (stereo not given), the TGI in [1], in experiment [2], in experiment [3], in experiment [8], in [4] and in experiment [5] was over 100 µM in each case. For the same compound, the TGI in experiment [6] and in experiment [7] was over 100 µM throughout.
As for `O=C1NC2(CCCCC2)C2=C1CCCCC2`, the TGI in [1], in experiment [2], in experiment [3], in experiment [8], in [4] and in experiment [5] was over 100 µM throughout. For the same compound, the TGI in experiment [6] and in [7] was over 100 µM in each case.
On to `COC(=O)N/N=C(\c1nc2ccc(Cl)cc2[nH]c1=O)C(O)c1ccc([N+](=O)[O-])cc1` (stereo not given), for which the TGI in experiment [1], in experiment [2], in [3], in experiment [8], in [4] and in experiment [5] was over 100 µM throughout. For the same compound, the TGI in [6] and in experiment [7] was over 100 µM throughout.
For `CN1C/C(=C\c2ccco2)c2nc(N)nc(-c3ccco3)c2C1`, the TGI in experiment [1], in experiment [2], in experiment [3], in experiment [4], in experiment [6] and in [7] was over 100 µM throughout.
`Cc1c(C(=O)C/C(=N/NC(=O)CC#N)C(N)=O)[n+](=O)c2ccccc2n1[O-]`: the TGI in experiment [1], in [2], in experiment [3], in experiment [8], in experiment [4] and in experiment [5] was over 100 µM each time. In addition, the TGI in experiment [6] and in [7] was over 100 µM in each case.
Regarding `CC1=C2[C@@H](c3ccccc3)C3C=CC2(C=C3C(F)(F)F)N(C(=O)NC2CCCCC2)C1=O` (stereo not given in full), the TGI in experiment [1] is over 100 µM; in experiment [2] it was over 100 µM; in [3] it was over 100 µM; in experiment [8], 66.8 µM; in experiment [4], over 100 µM; in experiment [5] it was over 100 µM. The TGI in [6] and in experiment [7] was over 100 µM each time.
Consider `COc1cccc(OC)c1/C=N\N1C(=O)c2ccccc2C1=O`, for which the TGI in experiment [1] is over 100 µM; in [2], over 100 µM; in experiment [3] it was 89.3 µM; in experiment [8] it was 74.5 µM; in experiment [4] it was 62.1 µM; in [5] it was over 100 µM. For the same compound, the TGI in [6] and in experiment [7] was over 100 µM each time.
In the case of `CCOC(=O)C1=C(O)c2c(OC)ccc(OC)c2C(=O)C1=O`, the TGI in [1], in experiment [2], in experiment [3], in experiment [8], in [4] and in experiment [5] was over 100 µM each time. Further, the TGI in experiment [6] and in experiment [7] was over 100 µM throughout.
Take `O=C(/C=C/c1ccc(OCC(=O)N2CCN(c3ccccc3)CC2)cc1)c1ccccc1`: the TGI in experiment [1] was over 89.4 µM; in experiment [2], over 53 µM; in [3], over 67.5 µM; in [8], 7.45 µM; in experiment [4], 51.6 µM; in experiment [5] it was over 100 µM. Further, the TGI in experiment [6] was over 87 µM; in [7] it was over 25.6 µM.
With `CCOC(=O)/C(=C/c1ccc[nH]1)P(=O)(OCC)OCC`, the TGI in experiment [1], in [2], in experiment [3], in experiment [8], in [4] and in [5] was over 100 µM in each case. The TGI in [6] and in experiment [7] was over 100 µM each time.
Regarding `COC(=O)C1=C(C)C(=O)C2(CCCCCC2C(=O)OC)C1` (stereo not given), the TGI in experiment [1], in experiment [2], in experiment [3], in [8], in [4] and in experiment [5] was over 100 µM each time. Further, the TGI in [6] and in [7] was over 100 µM throughout.
As to `O=C(CO[N+](=O)[O-])OCC(=O)c1ccccc1`, the TGI in experiment [1], in [3], in [8], in [4], in experiment [5] and in [6] was over 100 µM each time. Besides, the TGI in experiment [7] is over 100 µM.
In the case of `NC1=NN(c2ccccc2)C(=O)C1/C(=N\NC(=O)c1cc2ccccc2cc1O)C(=O)Nc1ccc(Cl)cc1` (stereo not given), the TGI is 89.3 µM in [1]; 56.5 µM in [2]; over 100 µM in experiment [3]; 71.3 µM in experiment [5]; over 100 µM in [6]; 24.4 µM in experiment [7].
Consider `CC(=O)Nc1ccc(C(=O)NN2C(=O)CSC2c2ccccc2)cc1` (stereo not given), for which the TGI in experiment [1], in experiment [2], in experiment [3], in experiment [9], in experiment [4] and in [5] was over 100 µM in each case. Besides, the TGI in experiment [6] and in experiment [7] was over 100 µM each time.
On to `Cc1[nH]n(C(=O)c2ccc(Cl)cc2)c(=O)c1/C=C1\C(O)=CC(=O)c2ccccc21`, for which the TGI in [1], in experiment [2], in experiment [3], in experiment [4], in experiment [5] and in [6] was over 100 µM throughout. The compound further displayed a TGI in experiment [7] of over 100 µM.
`CCCCc1c2c(nc3c1CC/C(=C\c1ccccc1)C3=O)CCCC2`: the TGI in experiment [1] worked out at 12.6 µM; in experiment [3], 4.79 µM; in [8] it was 11.5 µM; in experiment [4] it was 6.35 µM; in experiment [6] it was 17.7 µM; in experiment [7] it was 29.4 µM.
For the compound `CC(C)=NO.CC(C)=NO.CC(C)=NO.CC(C)=NO.[Ti]`, the GI50 in experiment [1], in experiment [2], in experiment [3], in experiment [4], in [5] and in experiment [6] was over 100 µM in each case. The GI50 in experiment [7] is over 100 µM. Further, the TGI in experiment [1], in experiment [2], in [3], in experiment [4], in experiment [5] and in [6] was over 100 µM in each case. Also, the TGI in [7] is over 100 µM.
`CCNC(=O)O/N=C1/C=C2CC[C@@H]3C(CC[C@@]4(C)C3CC[C@@H]4OC(=O)NCC)[C@@]2(C)CC1` (stereo not given in full): the TGI in experiment [2] was over 100 µM; in [3] it was 16.3 µM; in experiment [4] it was 5.3 µM; in experiment [5] it was 16.7 µM; in [6], 12.5 µM.
Turning to `CN1OC(CO)CC12C1CC3CC(C1)CC2C3` (stereo not given), the TGI in experiment [1], in experiment [2], in [3], in [8], in experiment [4] and in experiment [5] was over 100 µM each time. Moreover, the TGI in experiment [6] and in experiment [7] was over 100 µM each time.
On to `CCCNc1ncnc2c1cnn2C`, for which the TGI in [1], in [2], in [3], in experiment [8], in experiment [5] and in [6] was over 100 µM throughout. Besides, the TGI in [7] is over 100 µM.
As for `CC1=C(C(=O)OC(C)(C)C)C(c2ccc([N+](=O)[O-])cc2)C(C(=O)OC(C)(C)C)=C(C)N1`, the TGI in [1] amounted to 56.4 µM; in [2], 32.9 µM; in [3], 42.3 µM; in [10], 45.1 µM; in [4], 36.2 µM; in experiment [5] it was 29.7 µM. The TGI in experiment [6] is 38.6 µM.
Take `Cn1ncc2c(c1=O)Nc1ccccc1S2(=O)=O`: the TGI in experiment [1], in experiment [2], in experiment [3], in experiment [8], in [5] and in experiment [6] was over 100 µM in each case. In experiment [7], this compound returned a TGI of over 100 µM.
`Cn1nc(-c2ccccc2)c(C(=O)/C=C/c2ccccc2)c(N2CCCC2)c1=O`: the TGI in experiment [1] is 64.2 µM; in experiment [2], 35.7 µM; in [3], 76.5 µM; in experiment [4], 23.9 µM; in experiment [5], 6.23 µM; in experiment [6], 32.4 µM. Also, the TGI in experiment [7] came out at 40.6 µM.
For `O=C(O)C12C3C4C1C1C2C3C41I` (stereo not given), the TGI in [1], in experiment [2], in experiment [3], in experiment [5], in [6] and in experiment [7] was over 100 µM throughout.
For `NC1CC(n2ccc(=O)[nH]c2=O)OC1C(O)CO` (stereo not given), the TGI in experiment [1], in experiment [2], in [3], in experiment [8], in [4] and in experiment [5] was over 100 µM each time. The TGI in experiment [6] and in experiment [7] was over 100 µM in each case.
